Legend:
Plasmodium falciparum [1] = test: NOVARTIS: Inhibition of Plasmodium falciparum 3D7 (drug-susceptible) proliferation in erythrocyte-based infection assay; format: functional, organism-based; details: Plasmodium falciparum, 3D7
Plasmodium falciparum [2] = test: NOVARTIS: Inhibition of Plasmodium falciparum W2 (drug-resistant) proliferation in erythrocyte-based infection assay; format: functional, organism-based; details: Plasmodium falciparum, W2; read-out: EC50
[3] = NOVARTIS: Cytotoxicity against human hepatocellular carcinoma cell line (Huh7); format: toxicity, cell-based, Huh-7; details: Huh7 cells (hepatocellular carcinoma cell line)

| SMILES | EC50 (Plasmodium falciparum [1]) [nM] | EC50 (Plasmodium falciparum [2]) [nM] | CC50 [3] [µM] |
| --- | --- | --- | --- |
| CNC(=O)NNC(=O)c1cccnc1 | > 12500 | > 7470 | > 100 |
| Brc1ccc2c(c1)c1ccccc1n2CC1CO1 (configuration not stated) | 4730 | 2250 | 29.4 |
| CCCCc1ccc(C(=O)N(CCC(=O)Nc2nnc(-c3ccc(OC)cc3)s2)CCc2ccc(OC)c(OC)c2)cc1 | 1240 | > 757 | > 10 |
| CC(=O)Nc1ccc(Oc2ccc(C(c3ccccc3)(c3ccccc3)c3ccc(Oc4ccc(NC(C)=O)cc4)cc3)cc2)cc1 | 360 | 747 | > 10 |
| CC(C)(C)OC(=O)NCC(=O)Oc1cc2oc(=O)cc(-c3ccccc3)c2cc1Cl | > 1250 | > 755 | > 10 |
| CCOC(=O)N1CCN(C(=O)C(=O)NNC(=O)COc2ccc(Cl)cc2Br)CC1 | > 1250 | 769 | > 10 |
| Cc1ccc(C(C(=O)NCc2ccccc2)N(C(=O)c2snc(C(N)=O)c2N)c2ccccc2)o1 (configuration not stated) | 1230 | > 755 | > 10 |
| c1cc2cc3ccc(OCCN4CCCCC4)cc3nc2cc1OCCN1CCCCC1 | 348 | 772 | > 10 |
| O=C(CCC1CCCC1)NCCCCNc1ccnc2cc(Cl)ccc12 | 486 | 175 | 2.27 |
| O=C(NCCCCNc1ccnc2cc(Cl)ccc12)c1cc(C(F)(F)F)cc(C(F)(F)F)c1 | 642 | 766 | > 10 |
| COc1ccc(OC)c(-c2ccc(O)c(CNCC(C)C)c2)c1 | 950 | 773 | > 10 |
| O=C(NC(=S)Nc1ccc([N+](=O)[O-])cc1Cl)c1ccco1 | > 1530 | > 769 | > 10 |
| CC1CCCCN1CCCNc1ncc(C(=O)NCc2ccccc2)c(NCC2CCCCC2)n1 (configuration not stated) | 582 | > 759 | > 10 |
| N#C/C(=C\c1ccccc1OCc1ccc(Cl)cc1Cl)c1nc2ccccc2[nH]1 | 348 | > 772 | > 10 |
| COc1ccc(-c2csc3nc(COc4cccc(C)c4)nn23)c(O)c1 | > 4620 | 7590 | > 100 |
| CCOC(=O)N1CCN(C(=O)C(NC(=O)C2CCC(C)CC2)C(C)C)CC1 (configuration not stated) | > 1670 | > 755 | > 10 |
| CCCC(=O)O[C@]1(C(=O)CCl)[C@@H](C)C[C@H]2[C@@H]3CCC4=CC(=O)C=C[C@]4(C)[C@@]3(F)C(=O)C[C@@]21C | > 12500 | 6080 | 80 |

| SMILES | EC50 (Plasmodium falciparum [1]) [nM] | EC50 (Plasmodium falciparum [2]) [nM] | CC50 [3] [µM] |
| --- | --- | --- | --- |
| CCn1c2ccccc2c2cc(C=NNC(=O)c3nnn(-c4nonc4N)c3-c3ccccc3)ccc21 | > 1250 | > 760 | > 10 |
| COc1ccc(OC)c(-c2ccc(O)c(CNCC3(O)CCCCC3)c2)c1 | 818 | 762 | > 10 |
| CCc1ccccc1N1C(=O)CN(Cc2ccccc2)C1=S | > 12500 | 6000 | 78.8 |
| CC(C)(C)c1cc(Br)cc(C=NNc2ccc([N+](=O)[O-])cc2)c1O | > 1210 | 761 | > 10 |
| Cc1ccc(-n2c(C(C)N(CCc3ccccc3)C(=O)c3cccc(F)c3)nc3ccccc3c2=O)c(C)c1 (configuration not stated) | > 1250 | 764 | > 10 |
| CCN1C(=Cc2ccc3c4ccoc4ccc3[n+]2CC)C=Cc2c1ccc1occc21 | 534 | 764 | > 10 |
| Nc1nnc(SCC(=O)Nc2nnc(SCC(=O)Nc3nccs3)s2)s1 | > 1250 | > 738 | > 10 |
| CCN(CC)c1ccc2cc(C(C)=NNC(N)=S)c(=O)oc2c1 | 4310 | 7460 | > 100 |
| CCCCOc1ccc(/C=C/C(=O)NCc2ccco2)cc1 | 183 | 744 | > 10 |
| Cc1nc2cc(-c3ccc(F)cc3)nn2c(NCCCn2ccnc2)c1C | 990 | 776 | > 10 |
| C=C(Cl)CSc1nnc(CCNC(=O)c2ccc(C)cc2)n1-c1ccc(F)cc1 | > 12500 | 7430 | > 100 |
| COc1cc(NC(C)CCCN(Cc2ccc(F)cc2)C(=O)c2ccccc2F)c2ncccc2c1 (configuration not stated) | 692 | 649 | > 8.74 |
| COC(=O)CNC(=O)c1sc2ncn(CC(=O)Nc3ccccc3OC)c(=O)c2c1C | > 948 | > 739 | > 10 |
| O=C1C(O)=CC(=Nc2ccc(Cc3ccncc3)cc2)c2ccccc21 | 496 | 739 | > 10 |
| COc1ccc(NC2=CC(=O)CC(c3ccccc3)C2)c(OC)c1 (configuration not stated) | > 12500 | 7740 | > 100 |
| CCCCCCN(C(=O)Nc1ccccc1OC)C(C)c1nc2ccccc2c(=O)n1-c1ccccc1OCC (configuration not stated) | 852 | 753 | > 10 |
| Cc1ccccc1OCCSc1nc2ccc(NC(=O)c3ccccc3)cc2s1 | 9760 | > 7470 | > 100 |
